# Assay results as given in US20080275085A1, “Piperidine derivative and use thereof” (priority 2007, published 2008).
# Key:
# substance P receptor = target: T1, substance P receptor (Homo sapiens, UniProt P25103); assay: Radioligand receptor binding inhibitory activity (125I-BHSP binding, receptor from IM-9 cells); conditions: receptor from human lymphoblast cells (IM-9); radioligand 125I-BHSP; 25° C., 30 min
# T1 construct: The receptor was prepared from human lymphoblast cells (IM-9); endogenous in cells; host or cells: IM-9 human lymphoblast cells (membrane fraction, 100,000xG precipitate)
# T1 sequence (P25103 whole entry): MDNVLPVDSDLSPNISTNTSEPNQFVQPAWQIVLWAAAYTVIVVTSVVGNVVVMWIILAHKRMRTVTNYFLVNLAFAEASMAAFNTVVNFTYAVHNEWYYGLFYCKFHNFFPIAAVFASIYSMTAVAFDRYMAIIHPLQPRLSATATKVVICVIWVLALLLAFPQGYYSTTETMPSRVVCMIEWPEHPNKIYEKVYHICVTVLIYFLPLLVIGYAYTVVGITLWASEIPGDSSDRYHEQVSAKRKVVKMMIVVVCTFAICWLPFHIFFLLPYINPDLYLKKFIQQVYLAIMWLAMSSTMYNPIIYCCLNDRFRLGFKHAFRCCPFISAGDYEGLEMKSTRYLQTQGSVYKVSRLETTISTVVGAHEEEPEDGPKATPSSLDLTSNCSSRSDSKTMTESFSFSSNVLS
# Protocol: Radioligand Receptor Binding Inhibitory Activity (Binding Inhibitory Activity Using Receptor from Human Lymphoblast Cells (IM-9))
# The method of M. A. Cascieri et al., “Molecular Pharmacology, vol. 42, p. 458 (1992)” was modified and used. The receptor was prepared from human lymphoblast cells (IM-9).
# IM-9 cells (2×10^5 cells/mL) were inoculated and incubated for 3 days, which was then subjected to centrifugation for 10 min. at 500×G to give cell pellets. The obtained pellets were washed with PBS (GIBCO), disrupted in buffer A (50 mM tris.hydrochloric acid buffer (pH 7.4) containing 120 mM sodium chloride, 5 mM potassium chloride, 2 μg/mL chymostatin, 40 μg/mL bacitracin, 40 μg/mL APMSF, 1 mM ethylenediamine tetra acetic acid) using a polytron.homogenizer [manufactured by Kinematika, Germany], and centrifuged at 100,000×G for 40 min. The precipitated fraction was suspended in buffer B (50 mM Tris-HCl (pH 7.4), 0.02% bovine serum albumin, 2 μg/mL chymostatin, 40 μg/mL bacitracin, 40 μg/mL APMSF, 3 mM MgCl2), which was then cryopreserved (−80° C.) as a receptor specimen.
# Buffer B (50 μL) was added to a 96 well microassay plate (CORNING). Thereto was added 50 μL of membrane preparation suspended in buffer B at 250 μg/mL. A measurement buffer (50 μL) containing 2% dimethyl sulfoxide was added to examine total binding; 4 μM unlabeled SP (50 μL) diluted with a measurement buffer containing 2% dimethyl sulfoxide was added to examine non-specific binding; and 50 μL of a test compound (containing 2% dimethyl sulfoxide) diluted with a measurement buffer was added to examine binding inhibitory activity of the test compound. In addition, […] ^125I-BHSP solution (50 μL) was added to each well.
# After reaction at 25° C. for 30 min, the cells were rapidly filtered through a GF/C filter plate (PerkinElmer) using a cell harvester (manufactured by PerkinElmer) to quench the reaction, and washed 10 times with 250 μL of 50 mM tris-HCl buffer (pH 7.4) containing 0.02% bovine serum albumin. The GF/C filter plate was dried, MicroScinti 0 (20 μL) was added, and the radioactivity was measured with TopCount (manufactured by PerkinElmer). The GF/C filter plate was immersed in 0.3% polyethylene imine for one day before use.
# Specific binding is a value obtained by subtracting nonspecific binding from total binding. The binding inhibitory activity of a test compound is shown by a ratio of a value obtained by subtracting a measurement value with addition of a test compound from the total binding, relative to specific binding.
# The antagonistic activity of the compounds obtained in the Examples was determined as a concentration necessary for causing 50% inhibition (IC50 value) under the above-described conditions, and the results shown in Table 34 were obtained.
# The radio ligand means substance P labeled with [^125I].
SMILES,melting point,IC50 (substance P receptor)
"CCS(=O)(=O)N1CC[C@@H](C(=O)N(C)Cc2cc(C(F)(F)F)cc(C(F)(F)F)c2)[C@H](c2ccc(F)cc2C)C1 (relative stereo) [Example 132, (3R*,4R*)—N-[3,5-bis(trifluoromethyl)benzyl]-1-(ethylsulfonyl)-3-(4-fluoro-2-methylphenyl)-N-methylpiperidine-4-carboxamide]",170 to 171 °C,40 pM
"Cc1cc(F)ccc1[C@@H]1CN(C2=CC(=O)CC2)CC[C@H]1C(=O)N(C)Cc1cc(C(F)(F)F)cc(C(F)(F)F)c1 (relative stereo) [Example 118, (3R*,4R*)—N-[3,5-bis(trifluoromethyl)benzyl]-3-(4-fluoro-2-methylphenyl)-N-methyl-1-(3-oxocyclopent-1-en-1-yl)piperidine-4-carboxamide]",192 to 193 °C,60 pM
"Cc1cc(F)ccc1[C@@H]1CN(S(=O)(=O)N(C)C)CC[C@H]1C(=O)N(C)Cc1cc(C(F)(F)F)cc(C(F)(F)F)c1 (relative stereo) [Example 142, (3R*,4R*)—N-[3,5-bis(trifluoromethyl)benzyl]-1-[(dimethylamino)sulfonyl]-3-(4-fluoro-2-methylphenyl)-N-methylpiperidine-4-carboxamide]",142 to 144 °C,55 pM
"Cc1cc(F)ccc1[C@H]1CN(CC(N)=O)CC[C@@H]1C(=O)N(C)[C@@H](C)c1cc(C(F)(F)F)cc(C(F)(F)F)c1 [Example 156, (3S,4S)-1-(2-amino-2-oxoethyl)-N-{(1S)-1-[3,5-bis(trifluoromethyl)phenyl]ethyl}-3-(4-fluoro-2-methylphenyl)-N-methylpiperidine-4-carboxamide]",161 to 164 °C,24 pM
"Cc1cc(F)ccc1[C@@H]1CN(S(=O)(=O)c2ccccn2)CC[C@H]1C(=O)N(C)Cc1cc(C(F)(F)F)cc(C(F)(F)F)c1 (relative stereo) [Example 144, (3R*,4R*)—N-[3,5-bis(trifluoromethyl)benzyl]-3-(4-fluoro-2-methylphenyl)-N-methyl-1-(pyridin-2-ylsulfonyl)piperidine-4-carboxamide]",187 to 189 °C,45 pM
"CCOCCS(=O)(=O)N1CC[C@@H](C(=O)N(C)Cc2cc(C(F)(F)F)cc(C(F)(F)F)c2)[C@H](c2ccc(F)cc2C)C1 (relative stereo) [Example 138, (3R*,4R*)—N-[3,5-bis(trifluoromethyl)benzyl]-1-[(2-ethoxyethyl)sulfonyl]-3-(4-fluoro-2-methylphenyl)-N-methylpiperidine-4-carboxamide]",151 to 153 °C,78 pM
"Cc1cc(F)ccc1[C@H]1CN(S(=O)(=O)C2CC2)CC[C@@H]1C(=O)N(C)[C@@H](C)c1cc(C(F)(F)F)cc(C(F)(F)F)c1 [Example 162, (3S,4S)—N-{(1S)-1-[3,5-bis(trifluoromethyl)phenyl]ethyl}-1-(cyclopropylsulfonyl)-3-(4-fluoro-2-methylphenyl)-N-methylpiperidine-4-carboxamide]",154 to 156 °C,81 pM
"Cc1cc(F)ccc1[C@@H]1CN(C2=CC(=O)C(C)(C)CC2)CC[C@H]1C(=O)N(C)Cc1cc(C(F)(F)F)cc(C(F)(F)F)c1 (relative stereo) [Example 119, (3R*,4R*)—N-[3,5-bis(trifluoromethyl)benzyl]-1-(4,4-dimethyl-3-oxocyclohex-1-en-1-yl)-3-(4-fluoro-2-methylphenyl)-N-methylpiperidine-4-carboxamide]",137 to 138 °C,60 pM
